# Bridges are numbered along the chain shown (N, C = ends). Roman numbers before positions name the chains, in order. Where no end group is shown, it is not given here.
# How the values were obtained:
# [1] = tested on: 8,000 human proteins (GST fusion); experiment: Invitrogen Protoarray Human Protein Microarray binding pattern (8,000 features); details: fluorescence intensity on human protein microarray
# Method: Two biotinylated anti-TRF synbodies (SYN23-26 and SYN 21-22) were applied to a protein microarray having 8,000 features (Invitrogen Protoarray Human Protein Microarray v. 4.0 for immune response biomarker profiling), each feature comprising a distinct human protein (GST fusion) adsorbed to a nitrocellulose coated slide. Application of the synbodies to the microarray was performed in accordance with manufacturer instructions: (see ProtoArray Human Protein Microarray, Invitrogen, Catalog no. PAH052401, Version B, 15 Dec. 2006, 25-0970, Users Manual.) After blocking the array with 1% BSA/PBS/0.1% Tween for 1 hour at 4C with gentle shaking, 120 μl of probing buffer (1×PBS, 5 mM mgC12, 0.5 mM DTT, 0.05% Triton X-100, 5% glycerol, 1% BSA) with synbody was applied to the array. The prescribed cover slip was placed over the array and adjusted to remove air bubbles. The array was incubated in a 50 ml conical tube, printed side up, for 1.5 hours at 4C without shaking. The array was then removed from the conical tube inserted diagonally into the array chamber, kept on ice. 8 ml probing buffer was added to the chamber wall. The cover slip was removed and the array was incubated in probing buffer for 1 minute on ice. […] The array was dried in the dark for 60 minutes at room temperature, after which it was scanned using a fluorescent microarray scanner and data was taken and analyzed.
# [2] = biological target: AKT1 (Homo sapiens, UniProt P31749); experiment: SPR of SYN23-26 binding to AKT1; details: read-out: estimated Kd with respect to AKT1
# Chain of AKT1 (P31749 whole entry): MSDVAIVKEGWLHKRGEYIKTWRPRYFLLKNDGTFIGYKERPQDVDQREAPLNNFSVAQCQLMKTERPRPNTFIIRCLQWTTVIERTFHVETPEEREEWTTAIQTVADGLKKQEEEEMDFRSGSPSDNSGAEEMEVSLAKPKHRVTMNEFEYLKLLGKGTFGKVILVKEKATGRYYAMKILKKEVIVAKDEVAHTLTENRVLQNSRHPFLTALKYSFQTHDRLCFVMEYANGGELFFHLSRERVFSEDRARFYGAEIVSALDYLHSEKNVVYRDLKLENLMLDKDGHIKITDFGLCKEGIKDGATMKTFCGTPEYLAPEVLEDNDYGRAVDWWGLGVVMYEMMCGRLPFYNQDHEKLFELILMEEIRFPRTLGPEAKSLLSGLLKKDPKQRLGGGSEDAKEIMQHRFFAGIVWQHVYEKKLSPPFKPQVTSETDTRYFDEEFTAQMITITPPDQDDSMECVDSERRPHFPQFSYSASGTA
# [3] = biological target: T1, transferrin (Homo sapiens, UniProt P02787); experiment: SPR of SYN23-26 binding to transferrin; details: read-out: estimated Kd with respect to transferrin
# T1 sequence (P02787 20-698): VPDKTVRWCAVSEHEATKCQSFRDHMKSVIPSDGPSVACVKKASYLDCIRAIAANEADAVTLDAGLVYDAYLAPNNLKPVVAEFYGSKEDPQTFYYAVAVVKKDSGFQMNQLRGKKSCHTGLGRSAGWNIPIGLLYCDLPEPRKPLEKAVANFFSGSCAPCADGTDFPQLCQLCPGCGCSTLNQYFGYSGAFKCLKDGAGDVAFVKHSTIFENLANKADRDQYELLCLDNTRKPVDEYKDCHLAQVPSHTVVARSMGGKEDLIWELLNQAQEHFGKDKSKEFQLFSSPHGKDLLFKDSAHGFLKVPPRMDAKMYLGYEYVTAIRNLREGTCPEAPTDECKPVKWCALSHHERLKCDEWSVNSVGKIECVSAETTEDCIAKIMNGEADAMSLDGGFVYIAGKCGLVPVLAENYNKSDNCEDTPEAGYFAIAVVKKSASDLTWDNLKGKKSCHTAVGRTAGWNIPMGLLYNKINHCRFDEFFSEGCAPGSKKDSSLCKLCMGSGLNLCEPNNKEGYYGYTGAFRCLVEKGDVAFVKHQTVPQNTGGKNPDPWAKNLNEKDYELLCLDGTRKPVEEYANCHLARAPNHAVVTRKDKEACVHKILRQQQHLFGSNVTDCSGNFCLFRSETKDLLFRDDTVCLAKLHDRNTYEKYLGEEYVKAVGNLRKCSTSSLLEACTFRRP
# [4] = biological target: T1, transferrin; experiment: SPR of lysine-linked synbodies on immobilized transferrin, Kd from kinetics; format: binding; details: Kd determined from kinetics; read-out: Kd with respect to transferrin
# Method: Transferrin 25 μg/ml in immobilization buffer selected for correct pH was then applied 302 at a flow rate of 5 to 10 μl/min for a contact time of about 5 to 10 minutes, allowing the amine functionality on the transferrin 308 to displace the activated NHS ester and bond to the surface via an amide bond. Finally, ethylene diamine (1-Methylene diamine-HCl at pH 8.5) was applied 304 at a flow rate of 5 to 10 μl/min for a contact time of about 6 to 7 minutes to deactivate any remaining reactive groups on the dextran chip surface. Flow rates and contact times are adjusted as necessary to provide the surface concentration of target desired for the intended application, and may vary by target. In general, for evaluating whether binding occurs, it is preferable to immobilize a relatively large quantity of target, and higher flow rates and/or longer contact times may be used. For determining kinetics, it is preferable to limit the amount of target immobilized so as to minimize rebinding and avidity effects, and lower flow rates and/or contact times may be used.
# Candidate affinity elements for the transferrin synbody TRF19, TRF21, TRF23, TRF24, TRF25, and TRF26 were individually evaluated for solution phase KD with respect to transferrin by SPR analysis. […]
substance,measurement,setting,value
I: AHKVVPQRQIRHAYNRYGSGKC / II: FRGWAHIFFGPHVIYRGGSG (amide I:21-II:C) [SYN23-26],"highest affinity target from a library of 8,000",[1],PCCA
same,Kd,[2],~1 nM
same,Kd,[3],~141 nM
same,Kd,[4],150 ± 50 nM

# Reference: patent publication US20120021967A1, “SYNTHETIC ANTIBODIES” (Arizona Board of Regents, A Body Corporate of the State Of …, priority 2008, published 2012)
